Test results taken from the supplement of paper PMC4862054.

Tests used:
Settings in all cases: incubation time: 72 h
DU-4475 [1] = assay: normalised viability (% of control), CellTiter-Blue; higher = more viable cells (about 100 = DMSO control)
Experimental: (§1)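 DSRT, CellTiter-Blue viability, 72 h incubation. Signal is normalised to DMSO and benzethonium chloride controls. Value is the normalised response at dose 7.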

CAL-51 [2] = assay: as above
Experimental: as §1

HDQ-P1 [3] = assay: as above
Experimental: as §1

CAL-148 [4] = assay: as above
Experimental: as §1

MDA-MB-453 [5] = assay: as above
Experimental: as §1

CAL-85-1 [6] = assay: as above
Experimental: as §1

HCC1143 = assay: drug sensitivity score (DSS), CellTiter-Blue viability (DSS (AUC-based score)); higher = stronger viability inhibition; extreme values may be limits of the assay
Experimental: (§2)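 DSRT with the CellTiter-Blue (resazurin reduction) viability readout, fluorescence 560/590 nm, 72 h incubation. Plates were normalised to DMSO and benzethonium chloride controls. DSS is computed from the area under the fitted dose-response curve (5 or 9 concentrations).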

BT-549 = assay: as above
Experimental: as §2

BT-474 = assay: as above
Experimental: as §2

DU-4475 [7] = assay: as above
Experimental: as §2

HCC1937 [8] = assay: as above
Experimental: as §2

MFM-223 = assay: as above
Experimental: as §2

CAL-51 [9] = assay: as above
Experimental: as §2

MDA-MB-436 = assay: as above
Experimental: as §2

SK-BR-3 = assay: as above
Experimental: as §2

MDA-MB-468 = assay: as above
Experimental: as §2

HDQ-P1 [10] = assay: as above
Experimental: as §2

CAL-148 [11] = assay: as above
Experimental: as §2

MDA-MB-453 [12] = assay: as above
Experimental: as §2

CAL-85-1 [13] = assay: as above
Experimental: as §2

MDA-MB-231 = assay: drug sensitivity score (DSS), CellTox Green (DSS (AUC-based score)); higher = stronger drug effect (viability inhibition or cytotoxicity); extreme values may be limits of the assay
How it was run: (§3)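 For 72 h, breast cancer cell lines seeded at 20 µl suspension per well in 384-well plates were incubated with compound at 5 concentrations in 10-fold steps spanning a 10,000-fold range that differed by compound. The first reading was CellTox Green fluorescence at 485/520 nm, and the second was CellTiter-Glo luminescence after 10 min at room temperature. Both were normalised per plate to 0.1 % DMSO and a positive kill control, and the drug sensitivity score was obtained from the area under the fitted dose-response curve.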

HCC1937 [14] = assay: as above
How it was run: as §3

Row | SMILES | normalised viability (DU-4475 [1]) [%] | normalised viability (CAL-51 [2]) [%] | normalised viability (HDQ-P1 [3]) [%] | normalised viability (CAL-148 [4]) [%] | normalised viability (MDA-MB-453 [5]) [%] | normalised viability (CAL-85-1 [6]) [%] | also measured
1 | OC[C@H]1O[C@@H](n2cnc3c2N=CNC[C@H]3O)C[C@@H]1O [Pentostatin] (1000 nM) | 102 | 89.9 | 85.4 | 123 | 98.2 | 108 | –
2 | Cc1c2oc3c(C)ccc(C(=O)N[C@@H]4C(=O)N[C@H](C(C)C)C(=O)N5CCC[C@H]5C(=O)N(C)CC(=O)N(C)[C@@H](C(C)C)C(=O)O[C@@H]4C)c3nc-2c(C(=O)N[C@@H]2C(=O)N[C@H](C(C)C)C(=O)N3CCC[C@H]3C(=O)N(C)CC(=O)N(C)[C@@H](C(C)C)C(=O)O[C@@H]2C)c(N)c1=O [Dactinomycin] (100 nM) | 0.64 | 2.49 | 12.9 | 7.49 | 4.93 | 3.46 | –
3 | Clc1ccc(C(c2ccccc2Cl)C(Cl)Cl)cc1 (configuration not stated) [Mitotane] (1000 nM) | 87.9 | 105 | 104 | 108 | 97.5 | 83.2 | –
4 | C=CC[C@@H]1/C=C(\C)C[C@H](C)C[C@H](OC)[C@H]2O[C@@](O)(C(=O)C(=O)N3CCCC[C@H]3C(=O)O[C@H](/C(C)=C/[C@@H]3CC[C@@H](O)[C@H](OC)C3)[C@H](C)[C@@H](O)CC1=O)[C@H](C)C[C@@H]2OC [Tacrolimus] | – | – | – | – | – | – | drug sensitivity score (HCC1143): 0; drug sensitivity score (BT-549): 0; drug sensitivity score (BT-474): 0; drug sensitivity score (DU-4475 [7]): 0; drug sensitivity score (HCC1937 [8]): 0; drug sensitivity score (MFM-223): 0; drug sensitivity score (CAL-51 [9]): 0; drug sensitivity score (MDA-MB-436): 0; drug sensitivity score (SK-BR-3): 0; drug sensitivity score (MDA-MB-468): 0; drug sensitivity score (HDQ-P1 [10]): 0; drug sensitivity score (CAL-148 [11]): 0; drug sensitivity score (MDA-MB-453 [12]): 0; drug sensitivity score (CAL-85-1 [13]): 0; drug sensitivity score (MDA-MB-231): 2.92; drug sensitivity score (HCC1937 [14]): 0
5 | CS(=O)(=O)c1ccc(C(=O)Nc2ccc(Cl)c(-c3ccccn3)c2)c(Cl)c1 [Vismodegib] (1000 nM) | 114 | 99.1 | 92.4 | 98.3 | 98.3 | 97.1 | –
6 | Cc1ccc(F)c(NC(=O)Nc2ccc(-c3cccc4[nH]nc(N)c34)cc2)c1 [Linifanib] (100 nM) | 103 | 108 | 113 | 103 | 100 | 87.4 | –
7 | CO[C@H]1C[C@@H]2CC[C@@H](C)[C@@](O)(O2)C(=O)C(=O)N2CCCC[C@H]2C(=O)O[C@H]([C@H](C)C[C@@H]2CC[C@@H](OC(=O)C(C)(CO)CO)[C@H](OC)C2)CC(=O)[C@H](C)/C=C(\C)[C@@H](O)[C@@H](OC)C(=O)[C@H](C)C[C@H](C)/C=C/C=C/C=C/1C [Temsirolimus] (100 nM) | 50.6 | 37.9 | 71.8 | 37 | 24.9 | 53.2 | –
8 | CN1CC[C@H](c2c(O)cc(O)c3c(=O)cc(-c4ccccc4Cl)oc23)[C@H](O)C1 [Alvocidib] (1000 nM) | 3.18 | 4.57 | 10.8 | 10.3 | 9.17 | 1.95 | –
9 | CN(C)C/C=C/C(=O)Nc1cc2c(Nc3ccc(F)c(Cl)c3)ncnc2cc1O[C@H]1CCOC1 [Afatinib] (1000 nM) | 87.7 | 99.7 | 49.8 | 73.7 | 27.5 | 48.6 | –
10 | N#CC[C@H](C1CCCC1)n1cc(-c2ncnc3[nH]ccc23)cn1 [Ruxolitinib] (1000 nM) | 112 | 90 | 91.1 | 101 | 92.4 | 110 | –
11 | COc1cccc2c1C(=O)c1c(O)c3c(c(O)c1C2=O)C[C@@](O)(C(=O)CO)C[C@@H]3O[C@H]1C[C@H](N)[C@H](O)[C@H](C)O1 [Doxorubicin] (100 nM) | 59.1 | 66.1 | 70.9 | 39.1 | 98.8 | 77.5 | –
12 | C[C@]1(c2nc3c(C(N)=O)cccc3[nH]2)CCCN1 [Veliparib] (1000 nM) | 82.1 | 107 | 97.1 | 106 | 84.4 | 73.3 | –
